The term IC50 denotes the midpoint of a concentration-inhibition curve. Low values mean inhibition by little substance, high ones a need for much substance.

Here are results for six substances from US20250353873A1, “COMPOUNDS AND METHODS FOR MODULATING APOE EXPRESSION” (Ionis Pharmaceuticals, Inc., priority 2024, published 2025).

Strand notation (5' to 3'): a small letter for the sugar, then the base; units joined by * are phosphorothioate-linked, units joined directly phosphodiester-linked; [ ] holds rarer units or linkages, { } end groups; capitals alone tell only the bases. [ms] = mesyl phosphoramidate linkage; e = 2'-O-(2-methoxyethyl) (MOE); [5mC] = 5-methylcytosine; d = 2'-deoxy (DNA)

Data set [1] deals with human APOE RNA. Kind of data set: Dose-dependent inhibition of human APOE RNA in HepG2 cells, electroporation, 24 hours (Example 6). The data set is classed as cell-based. An outline of the steps: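 HepG2 cells, 50,000 per well, electroporated with various oligonucleotide concentrations. APOE RNA measured with primer probe set RTS3073, normalized to GAPDH (RTS104), expressed as % of untreated control; IC50 then calculated.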

For data set [2], the system named is human APOE RNA. Kind of data set: Activity in APOE 1549 knock-in mice, single ICV bolus, 4 weeks (Example 8). Type of data set: in vivo. As to conditions: n = 2, single ICV bolus of 300 μg, four weeks post treatment, Table 18. How it is done: Modified oligonucleotides described above were tested in the 1549 APOE knock-in mouse model described above.
APOE knock-in mice were divided into groups of either 2 or 6 mice each as described in the tables below. Each mouse received a single intracerebroventricular (ICV) bolus of 300 μg of modified oligonucleotide. A group of either 3 or 6 mice received a single ICV bolus with PBS as a negative control.
Four weeks post treatment, mice were sacrificed and RNA was extracted from cortical brain tissue and spinal cord for quantitative real-time RT-PCR analysis of RNA expression of APOE using primer probe set RTS3073 (described herein above). APOE RNA levels were normalized to mouse Ppia. Mouse Ppia was amplified using primer probe set m_cyclo24 (described herein above). Results are presented as percent human APOE RNA relative to the amount of human APOE RNA in PBS treated animals, (% control). Each experiment is identified in separate tables below.

In data set [3] the test system is human APOE RNA. The data set can be described thus: Activity in APOE C57BL/6NTac-Apoeem7250 knock-in mice, single ICV bolus, 20 weeks (Example 13). Type of data set: in vivo. Conditions: single ICV bolus 300 μg, 20 weeks post treatment, normalized to mouse Ppia. A digest of the protocol: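 Knock-in mice (n=4) given a single ICV bolus of 300 μg oligonucleotide, PBS as control. After 20 weeks, human APOE RNA in cortex and spinal cord measured by RT-qPCR, normalized to mouse Ppia, expressed as % of PBS-treated animals.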

Substance “1736523: 6-10-4 MOE gapmer CTTGGTGAATCTTTATTAAA, linkages ssoooszzssssssssoss (e[5mC]*eT*eTeGeGeT*dG[ms]dA[ms]dA*dT*d[5mC]*dT*dT*dT*dA*dT*eTeA*eA*eA) [compound 1736523]” yielded an IC50 in the data set with human APOE RNA [1] of 0.67 µM. Further, the “APOE RNA (% UTC)” value is 97 % UTC in the data set with human APOE RNA [1] (5 nM); 114 % UTC with human APOE RNA [1] (13 nM); 108 % UTC with human APOE RNA [1] (33 nM); 79 % UTC with human APOE RNA [1] (82 nM); 78 % UTC in the data set on human APOE RNA [1] (205 nM); 47 % UTC in the data set with human APOE RNA [1] (512 nM). Further, the “APOE RNA (% UTC)” value with human APOE RNA [1] (1,280 nM) is 29 % UTC; with human APOE RNA [1] (3,200 nM), 39 % UTC; in the data set on human APOE RNA [1] (8,000 nM) it was 5 % UTC; in the data set on human APOE RNA [1] (20,000 nM), 4 % UTC. Further, the results for the “APOE RNA (% control) Cortex” value in the data set on human APOE RNA [2] and in the data set with human APOE RNA [3] were 42 % control and 73 % control, respectively. For the same substance, the results for the “APOE RNA (% control) Spinal Cord” value in the data set on human APOE RNA [2] and in the data set on human APOE RNA [3] were 34 % control and 44 % control, respectively.
On to “1736525: 6-10-4 MOE gapmer CTTGGTGAATCTTTATTAAA, linkages sooosszzsssssssssss (e[5mC]*eTeTeGeG*eT*dG[ms]dA[ms]dA*dT*d[5mC]*dT*dT*dT*dA*dT*eT*eA*eA*eA) [compound 1736525]”, for which half-maximal inhibition with human APOE RNA [1] (IC50) required 1.28 µM. For the same substance, the “APOE RNA (% UTC)” value is reported as 101 % UTC in the data set on human APOE RNA [1] (5 nM); 100 % UTC with human APOE RNA [1] (13 nM); 106 % UTC in the data set with human APOE RNA [1] (33 nM); 113 % UTC in the data set with human APOE RNA [1] (82 nM); 70 % UTC in the data set on human APOE RNA [1] (205 nM); 69 % UTC with human APOE RNA [1] (512 nM). Moreover, the “APOE RNA (% UTC)” value worked out at 37 % UTC in the data set on human APOE RNA [1] (1,280 nM), 42 % UTC in the data set with human APOE RNA [1] (3,200 nM), 22 % UTC in the data set with human APOE RNA [1] (8,000 nM) and 7 % UTC in the data set on human APOE RNA [1] (20,000 nM). Besides, the “APOE RNA (% control) Cortex” value with human APOE RNA [2] was determined as 35 % control; in the data set with human APOE RNA [3] it was 71 % control. In addition, the “APOE RNA (% control) Spinal Cord” value was determined as 41 % control in the data set on human APOE RNA [2] and 118 % control in the data set on human APOE RNA [3].
In the case of “1736520: 6-10-4 MOE gapmer CTTGGTGAATCTTTATTAAA, linkages sossoszzzssssssssss (e[5mC]*eTeT*eG*eGeT*dG[ms]dA[ms]dA[ms]dT*d[5mC]*dT*dT*dT*dA*dT*eT*eA*eA*eA) [compound 1736520]”, the half-inhibitory concentration (IC50) in the data set on human APOE RNA [1] turned out to be 0.57 µM. Further, the “APOE RNA (% UTC)” value in the data set on human APOE RNA [1] (5 nM) stood at 109 % UTC; in the data set on human APOE RNA [1] (13 nM) it was 87 % UTC; in the data set on human APOE RNA [1] (33 nM), 92 % UTC; with human APOE RNA [1] (82 nM) it was 72 % UTC; in the data set with human APOE RNA [1] (205 nM), 62 % UTC; in the data set on human APOE RNA [1] (512 nM) it was 34 % UTC. Further, the “APOE RNA (% UTC)” value in the data set on human APOE RNA [1] (1,280 nM) came to 28 % UTC; in the data set on human APOE RNA [1] (3,200 nM), 11 % UTC; in the data set with human APOE RNA [1] (8,000 nM) it was 11 % UTC; in the data set with human APOE RNA [1] (20,000 nM), 83 % UTC. Besides, the figures for the “APOE RNA (% control) Cortex” value in the data set on human APOE RNA [2] and in the data set with human APOE RNA [3] were 41 % control and 65 % control, respectively. The “APOE RNA (% control) Spinal Cord” value amounted to 32 % control with human APOE RNA [2] and 62 % control with human APOE RNA [3].
“1736527: 6-10-4 MOE gapmer CTTGGTGAATCTTTATTAAA, linkages sssooozzsssssssssss (e[5mC]*eT*eT*eGeGeTdG[ms]dA[ms]dA*dT*d[5mC]*dT*dT*dT*dA*dT*eT*eA*eA*eA) [compound 1736527]” registered an IC50 in the data set on human APOE RNA [1] of 1.58 µM. The “APOE RNA (% UTC)” value with human APOE RNA [1] (5 nM) is reported as 104 % UTC; with human APOE RNA [1] (13 nM) it was 108 % UTC; in the data set with human APOE RNA [1] (33 nM), 96 % UTC; with human APOE RNA [1] (82 nM) it was 97 % UTC; in the data set on human APOE RNA [1] (205 nM), 92 % UTC; in the data set on human APOE RNA [1] (512 nM) it was 63 % UTC. The “APOE RNA (% UTC)” value with human APOE RNA [1] (1,280 nM) was 37 % UTC; in the data set on human APOE RNA [1] (3,200 nM) it was 37 % UTC; with human APOE RNA [1] (8,000 nM), 34 % UTC; with human APOE RNA [1] (20,000 nM), 23 % UTC. The “APOE RNA (% control) Cortex” value in the data set with human APOE RNA [2] amounted to 37 % control; in the data set on human APOE RNA [3], 64 % control. The “APOE RNA (% control) Spinal Cord” value in the data set on human APOE RNA [2] is given as 54 % control; with human APOE RNA [3], 58 % control.
“1736524: 6-10-4 MOE gapmer CTTGGTGAATCTTTATTAAA, linkages sssooozzssssssssoss (e[5mC]*eT*eT*eGeGeTdG[ms]dA[ms]dA*dT*d[5mC]*dT*dT*dT*dA*dT*eTeA*eA*eA) [compound 1736524]”: the IC50 with human APOE RNA [1] was determined as 1.09 µM. Further, the “APOE RNA (% UTC)” value in the data set on human APOE RNA [1] (5 nM) was 97 % UTC; in the data set on human APOE RNA [1] (13 nM) it was 101 % UTC; with human APOE RNA [1] (33 nM), 89 % UTC; with human APOE RNA [1] (82 nM), 91 % UTC; in the data set with human APOE RNA [1] (205 nM), 66 % UTC; in the data set with human APOE RNA [1] (512 nM), 66 % UTC. For the same substance, the “APOE RNA (% UTC)” value turned out to be 39 % UTC in the data set with human APOE RNA [1] (1,280 nM), 34 % UTC in the data set with human APOE RNA [1] (3,200 nM), 28 % UTC in the data set with human APOE RNA [1] (8,000 nM) and 17 % UTC with human APOE RNA [1] (20,000 nM). The “APOE RNA (% control) Cortex” value in the data set with human APOE RNA [2] is 36 % control; with human APOE RNA [3], 67 % control. In addition, the “APOE RNA (% control) Spinal Cord” value in the data set with human APOE RNA [2] is on record as 31 % control; in the data set on human APOE RNA [3], 62 % control.
“1736522: 6-10-4 MOE gapmer CTTGGTGAATCTTTATTAAA, linkages sooosszzssssssssoss (e[5mC]*eTeTeGeG*eT*dG[ms]dA[ms]dA*dT*d[5mC]*dT*dT*dT*dA*dT*eTeA*eA*eA) [compound 1736522]”: in the data set on human APOE RNA [1], the IC50 worked out at 1.38 µM. The “APOE RNA (% UTC)” value with human APOE RNA [1] (5 nM) was 110 % UTC; in the data set on human APOE RNA [1] (13 nM) it was 88 % UTC; in the data set with human APOE RNA [1] (33 nM), 90 % UTC; in the data set with human APOE RNA [1] (82 nM) it was 82 % UTC; in the data set on human APOE RNA [1] (205 nM), 67 % UTC; in the data set with human APOE RNA [1] (512 nM), 59 % UTC. Besides, the “APOE RNA (% UTC)” value in the data set on human APOE RNA [1] (1,280 nM) was found to be 45 % UTC; with human APOE RNA [1] (3,200 nM), 41 % UTC; in the data set with human APOE RNA [1] (8,000 nM), 18 % UTC; with human APOE RNA [1] (20,000 nM) it was 43 % UTC. Besides, the “APOE RNA (% control) Cortex” value is reported as 41 % control in the data set with human APOE RNA [2] and 64 % control in the data set on human APOE RNA [3]. Also, the “APOE RNA (% control) Spinal Cord” value was 39 % control in the data set with human APOE RNA [2] and 56 % control in the data set with human APOE RNA [3].
